The values that follow come from ChEMBL document CHEMBL3991601, “The target landscape of clinical kinase drugs” (Science, 2017).

Active and inactive are the calls of the source.

As a reminder, the Kd is the constant that tells how readily two partners part at equilibrium.

Assay [1] concerns the target Cyclin-dependent kinase 6 (Homo sapiens, UniProt Q00534).
Assay [2] concerns the target T1, Bifunctional phosphoribosylaminoimidazole carboxylase/phosphoribosylaminoimidazole succinocarboxamide synthetase (Homo sapiens, UniProt P22234).
T1 sequence (P22234 whole entry): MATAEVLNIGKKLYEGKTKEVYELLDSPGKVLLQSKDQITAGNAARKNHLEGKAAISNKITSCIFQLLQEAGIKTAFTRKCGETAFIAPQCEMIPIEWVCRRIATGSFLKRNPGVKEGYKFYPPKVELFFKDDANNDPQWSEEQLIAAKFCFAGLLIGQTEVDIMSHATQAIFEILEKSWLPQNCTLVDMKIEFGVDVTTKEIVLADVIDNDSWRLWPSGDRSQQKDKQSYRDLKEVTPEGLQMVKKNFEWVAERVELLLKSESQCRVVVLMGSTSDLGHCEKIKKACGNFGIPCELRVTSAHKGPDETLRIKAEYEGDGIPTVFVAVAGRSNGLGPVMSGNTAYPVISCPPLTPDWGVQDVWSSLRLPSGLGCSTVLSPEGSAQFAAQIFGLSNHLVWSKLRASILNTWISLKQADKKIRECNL

For assay [3], the target named is T2, Ras-related protein Rab-10 (Homo sapiens, UniProt P61026).
T2 sequence (P61026 whole entry): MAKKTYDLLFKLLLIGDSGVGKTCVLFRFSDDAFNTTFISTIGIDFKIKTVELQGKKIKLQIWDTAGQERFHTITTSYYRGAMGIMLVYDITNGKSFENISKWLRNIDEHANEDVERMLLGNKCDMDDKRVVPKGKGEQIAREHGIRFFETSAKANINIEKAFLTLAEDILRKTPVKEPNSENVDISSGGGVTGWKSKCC

Assay [4] addresses Ribosomal protein S6 kinase alpha-4 (Homo sapiens, UniProt O75676).
Assay [5] has as its target T3, Serine/threonine-protein kinase Nek3 (Homo sapiens, UniProt P51956).
T3 sequence (P51956 whole entry): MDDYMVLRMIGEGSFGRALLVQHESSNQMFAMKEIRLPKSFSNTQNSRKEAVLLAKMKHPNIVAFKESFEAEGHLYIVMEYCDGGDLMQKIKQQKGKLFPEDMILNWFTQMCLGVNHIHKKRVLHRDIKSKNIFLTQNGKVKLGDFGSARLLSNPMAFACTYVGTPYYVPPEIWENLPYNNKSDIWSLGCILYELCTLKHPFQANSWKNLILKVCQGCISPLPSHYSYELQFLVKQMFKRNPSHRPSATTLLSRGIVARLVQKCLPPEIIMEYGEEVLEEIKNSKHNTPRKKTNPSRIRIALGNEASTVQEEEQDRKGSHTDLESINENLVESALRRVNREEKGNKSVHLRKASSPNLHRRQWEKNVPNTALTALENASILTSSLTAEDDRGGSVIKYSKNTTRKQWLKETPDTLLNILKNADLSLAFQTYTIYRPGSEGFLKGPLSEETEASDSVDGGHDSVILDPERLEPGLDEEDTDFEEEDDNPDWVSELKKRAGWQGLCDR

The target of assay [6] is Serine/threonine-protein kinase MRCK beta (Homo sapiens, UniProt Q9Y5S2).
The target of assay [7] is Eukaryotic translation initiation factor 2-alpha kinase 1 (Homo sapiens, UniProt Q9BQI3).
Note: in the data inactive means no Kd found up to 30 µM.

Chain of Cyclin-dependent kinase 6 (Q00534 whole entry): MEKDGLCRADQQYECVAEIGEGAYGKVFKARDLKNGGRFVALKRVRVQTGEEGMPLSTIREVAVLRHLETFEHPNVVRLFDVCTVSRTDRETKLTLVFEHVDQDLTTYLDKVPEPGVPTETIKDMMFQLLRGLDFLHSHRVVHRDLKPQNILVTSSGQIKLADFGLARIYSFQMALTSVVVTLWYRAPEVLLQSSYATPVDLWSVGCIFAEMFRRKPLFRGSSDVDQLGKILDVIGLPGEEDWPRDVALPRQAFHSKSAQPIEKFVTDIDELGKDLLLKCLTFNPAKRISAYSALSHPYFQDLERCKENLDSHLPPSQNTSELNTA
Chain of Serine/threonine-protein kinase MRCK beta (Q9Y5S2 whole entry): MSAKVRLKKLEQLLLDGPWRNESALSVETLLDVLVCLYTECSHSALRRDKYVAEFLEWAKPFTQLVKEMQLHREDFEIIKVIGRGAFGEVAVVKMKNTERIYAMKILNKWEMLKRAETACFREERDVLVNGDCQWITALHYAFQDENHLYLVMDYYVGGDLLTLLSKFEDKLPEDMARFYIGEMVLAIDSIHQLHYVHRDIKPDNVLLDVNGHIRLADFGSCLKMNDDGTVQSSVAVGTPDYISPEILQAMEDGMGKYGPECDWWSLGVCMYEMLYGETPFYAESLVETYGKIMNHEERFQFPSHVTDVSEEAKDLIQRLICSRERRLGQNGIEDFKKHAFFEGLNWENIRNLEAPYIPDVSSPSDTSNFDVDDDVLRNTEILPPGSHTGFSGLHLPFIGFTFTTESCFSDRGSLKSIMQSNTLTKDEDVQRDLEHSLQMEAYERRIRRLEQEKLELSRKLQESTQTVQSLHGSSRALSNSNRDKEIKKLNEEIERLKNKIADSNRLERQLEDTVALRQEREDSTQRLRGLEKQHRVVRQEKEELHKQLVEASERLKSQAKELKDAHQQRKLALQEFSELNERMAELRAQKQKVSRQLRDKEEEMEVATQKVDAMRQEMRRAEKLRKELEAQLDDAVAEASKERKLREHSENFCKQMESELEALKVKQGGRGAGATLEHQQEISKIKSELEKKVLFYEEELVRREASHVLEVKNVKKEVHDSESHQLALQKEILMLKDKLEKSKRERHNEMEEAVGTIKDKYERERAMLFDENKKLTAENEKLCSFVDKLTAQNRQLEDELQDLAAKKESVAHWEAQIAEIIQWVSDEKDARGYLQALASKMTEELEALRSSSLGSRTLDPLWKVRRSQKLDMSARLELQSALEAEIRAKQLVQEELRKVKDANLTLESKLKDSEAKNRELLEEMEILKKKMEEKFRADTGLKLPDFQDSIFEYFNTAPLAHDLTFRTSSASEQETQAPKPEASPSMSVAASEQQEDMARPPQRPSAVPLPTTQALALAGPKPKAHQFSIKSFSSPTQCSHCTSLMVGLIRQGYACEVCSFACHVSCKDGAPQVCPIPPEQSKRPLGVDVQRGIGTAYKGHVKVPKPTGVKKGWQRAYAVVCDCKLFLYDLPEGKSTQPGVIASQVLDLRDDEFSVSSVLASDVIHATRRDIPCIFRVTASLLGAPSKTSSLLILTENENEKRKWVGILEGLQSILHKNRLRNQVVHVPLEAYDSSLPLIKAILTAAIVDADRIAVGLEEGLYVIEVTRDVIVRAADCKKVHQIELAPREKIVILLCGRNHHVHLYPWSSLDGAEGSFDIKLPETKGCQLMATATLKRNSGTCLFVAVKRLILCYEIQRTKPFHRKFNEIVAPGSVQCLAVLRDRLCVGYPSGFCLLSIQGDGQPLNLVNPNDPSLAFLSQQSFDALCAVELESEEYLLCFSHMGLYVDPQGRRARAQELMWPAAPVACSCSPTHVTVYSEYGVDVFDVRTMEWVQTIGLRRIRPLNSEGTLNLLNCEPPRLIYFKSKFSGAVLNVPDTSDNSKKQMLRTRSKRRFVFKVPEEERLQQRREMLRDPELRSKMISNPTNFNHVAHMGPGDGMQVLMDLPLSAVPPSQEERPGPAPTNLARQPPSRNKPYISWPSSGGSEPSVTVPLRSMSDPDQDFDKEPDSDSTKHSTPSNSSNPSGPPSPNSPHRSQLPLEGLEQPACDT
Chain of Ribosomal protein S6 kinase alpha-4 (O75676 whole entry): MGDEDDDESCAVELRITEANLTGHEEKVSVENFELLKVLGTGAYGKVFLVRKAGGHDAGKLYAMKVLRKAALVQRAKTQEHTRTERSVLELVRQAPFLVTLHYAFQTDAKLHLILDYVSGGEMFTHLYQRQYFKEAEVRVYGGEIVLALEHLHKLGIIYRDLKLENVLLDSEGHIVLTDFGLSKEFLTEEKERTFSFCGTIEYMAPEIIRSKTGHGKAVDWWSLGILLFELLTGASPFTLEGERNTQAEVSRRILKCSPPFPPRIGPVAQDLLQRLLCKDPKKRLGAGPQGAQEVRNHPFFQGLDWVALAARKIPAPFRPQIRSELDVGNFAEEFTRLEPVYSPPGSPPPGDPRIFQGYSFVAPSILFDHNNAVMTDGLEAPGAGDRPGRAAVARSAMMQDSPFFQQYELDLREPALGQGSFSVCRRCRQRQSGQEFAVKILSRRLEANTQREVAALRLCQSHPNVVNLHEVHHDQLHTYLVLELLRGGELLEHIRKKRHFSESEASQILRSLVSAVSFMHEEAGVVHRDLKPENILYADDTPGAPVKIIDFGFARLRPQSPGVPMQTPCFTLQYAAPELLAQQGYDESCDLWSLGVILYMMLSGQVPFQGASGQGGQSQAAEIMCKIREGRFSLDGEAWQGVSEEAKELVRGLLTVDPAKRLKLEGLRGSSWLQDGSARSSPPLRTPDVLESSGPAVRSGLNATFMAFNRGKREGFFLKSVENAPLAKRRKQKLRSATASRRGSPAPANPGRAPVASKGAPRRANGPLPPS
Chain of Eukaryotic translation initiation factor 2-alpha kinase 1 (Q9BQI3 whole entry): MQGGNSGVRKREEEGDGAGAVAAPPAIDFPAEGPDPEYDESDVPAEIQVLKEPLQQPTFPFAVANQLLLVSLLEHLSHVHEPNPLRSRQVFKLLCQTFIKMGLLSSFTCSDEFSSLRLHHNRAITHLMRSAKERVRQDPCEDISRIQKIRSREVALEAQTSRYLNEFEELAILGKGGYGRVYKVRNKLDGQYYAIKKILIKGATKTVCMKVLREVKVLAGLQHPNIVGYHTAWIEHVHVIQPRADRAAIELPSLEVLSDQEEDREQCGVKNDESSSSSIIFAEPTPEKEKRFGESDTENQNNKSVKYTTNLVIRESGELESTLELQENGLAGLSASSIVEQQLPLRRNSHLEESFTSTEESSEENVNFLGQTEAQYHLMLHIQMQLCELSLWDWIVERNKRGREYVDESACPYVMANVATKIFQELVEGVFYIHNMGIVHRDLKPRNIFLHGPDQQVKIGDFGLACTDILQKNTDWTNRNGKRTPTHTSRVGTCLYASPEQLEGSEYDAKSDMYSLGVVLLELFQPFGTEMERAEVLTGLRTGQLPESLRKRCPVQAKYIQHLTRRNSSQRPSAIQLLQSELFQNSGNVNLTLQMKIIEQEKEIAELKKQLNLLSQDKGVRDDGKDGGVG

Regarding `CCn1c(-c2nonc2N)nc2c(C#CC(C)(C)O)ncc(OC[C@H]3CCCNC3)c21` [GSK-690693], the Kd in assay [1], in assay [2] and in assay [3] was > 30 µM (inactive) throughout.

As for `Cc1cc(Nc2cc(N3CCN(C)CC3)nc(/C=C/c3ccccc3)n2)n[nH]1` [ENMD-2076], the Kd in assay [4], in assay [1], in assay [5], in assay [6], in assay [2] and in assay [3] was > 30 µM (inactive) each time.

In the case of `Nc1nc(N)c2nc(-c3cccc(O)c3)c(-c3cccc(O)c3)nc2n1` [TG100-115], the Kd in assay [1], in assay [2] and in assay [3] was > 30 µM (inactive) in each case.

With `CN1CCN(c2ccc3nc(-c4c(N)c5c(F)cccc5[nH]c4=O)[nH]c3c2)CC1` [DOVITINIB], the Kd in assay [1] was 2.83 µM (active); in assay [2] it was > 30 µM (inactive); in assay [3], > 30 µM (inactive).

As for `Cc1nc(N)sc1-c1ccnc(Nc2ccc(N3CCOCC3)cc2)n1` [CYC-116], the Kd in assay [1] was 1.72 µM (active); in assay [5], 0.83 µM (active); in assay [6] it was > 30 µM (inactive); in assay [2] it was > 30 µM (inactive); in assay [7], > 30 µM (inactive); in assay [3], > 30 µM (inactive).

On to `Cc1cn(-c2cc(NC(=O)c3ccc(C)c(Nc4nccc(-c5cccnc5)n4)c3)cc(C(F)(F)F)c2)cn1` [NILOTINIB], for which the Kd in assay [1], in assay [2] and in assay [3] was > 30 µM (inactive) in each case.
